What was measured:
[1] = target: 5-hydroxytryptamine receptor 2A (Homo sapiens, UniProt P28223)
[2] = target: T1, Bile acid receptor (Homo sapiens, UniProt Q96RI1); format: functional
T1 sequence (Q96RI1 whole entry): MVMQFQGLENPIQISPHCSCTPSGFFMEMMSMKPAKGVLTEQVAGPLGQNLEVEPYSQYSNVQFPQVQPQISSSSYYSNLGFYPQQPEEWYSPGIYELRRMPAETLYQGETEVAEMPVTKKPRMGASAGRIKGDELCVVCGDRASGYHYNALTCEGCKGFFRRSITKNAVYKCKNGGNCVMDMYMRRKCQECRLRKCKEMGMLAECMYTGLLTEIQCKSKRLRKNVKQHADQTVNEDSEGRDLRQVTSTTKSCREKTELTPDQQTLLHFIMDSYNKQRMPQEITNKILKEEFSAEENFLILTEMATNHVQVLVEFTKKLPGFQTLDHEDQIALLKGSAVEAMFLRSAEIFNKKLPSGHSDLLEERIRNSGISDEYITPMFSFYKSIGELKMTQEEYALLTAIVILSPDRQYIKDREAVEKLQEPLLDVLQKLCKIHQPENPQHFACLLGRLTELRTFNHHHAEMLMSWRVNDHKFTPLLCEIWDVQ

[3] = target: Rod cGMP-specific 3',5'-cyclic phosphodiesterase subunit alpha (Homo sapiens, UniProt P16499); format: functional
[4] = target: T2, Peroxisome proliferator-activated receptor alpha (Homo sapiens, UniProt Q07869); format: functional
T2 sequence (Q07869 whole entry): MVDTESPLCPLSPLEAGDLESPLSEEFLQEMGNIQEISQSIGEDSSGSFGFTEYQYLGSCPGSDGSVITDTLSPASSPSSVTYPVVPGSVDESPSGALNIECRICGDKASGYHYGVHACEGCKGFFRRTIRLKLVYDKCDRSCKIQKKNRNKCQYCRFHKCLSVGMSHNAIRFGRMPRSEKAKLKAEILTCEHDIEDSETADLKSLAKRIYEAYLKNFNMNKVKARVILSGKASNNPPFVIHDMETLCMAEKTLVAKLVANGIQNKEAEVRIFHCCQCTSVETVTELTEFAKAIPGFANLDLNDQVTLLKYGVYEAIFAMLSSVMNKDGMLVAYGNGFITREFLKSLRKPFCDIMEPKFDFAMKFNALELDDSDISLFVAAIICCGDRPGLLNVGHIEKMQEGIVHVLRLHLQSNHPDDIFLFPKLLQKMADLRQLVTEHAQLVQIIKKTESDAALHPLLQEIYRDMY

[5] = target: T2, Peroxisome proliferator-activated receptor alpha; format: functional; remark: listed apart in the source
[6] = target: T3, Retinoic acid receptor alpha (Homo sapiens, UniProt P10276); format: functional, cell-based
T3 sequence (P10276 whole entry): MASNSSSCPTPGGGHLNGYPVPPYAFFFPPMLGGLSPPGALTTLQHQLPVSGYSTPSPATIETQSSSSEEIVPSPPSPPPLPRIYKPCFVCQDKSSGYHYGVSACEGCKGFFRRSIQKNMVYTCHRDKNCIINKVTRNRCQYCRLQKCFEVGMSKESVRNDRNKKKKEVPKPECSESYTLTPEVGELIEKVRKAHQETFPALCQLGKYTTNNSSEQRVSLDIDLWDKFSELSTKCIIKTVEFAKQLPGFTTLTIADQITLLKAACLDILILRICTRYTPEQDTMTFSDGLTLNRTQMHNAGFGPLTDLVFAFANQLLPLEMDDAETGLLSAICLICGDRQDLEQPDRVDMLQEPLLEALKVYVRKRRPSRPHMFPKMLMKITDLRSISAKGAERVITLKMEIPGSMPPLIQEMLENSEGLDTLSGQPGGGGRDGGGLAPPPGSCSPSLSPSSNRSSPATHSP

[7] = target: T3, Retinoic acid receptor alpha; format: functional, cell-based; remark: listed apart in the source
[8] = target: T4, Androgen receptor (Rattus norvegicus, UniProt P15207); format: functional
T4 sequence (P15207 whole entry): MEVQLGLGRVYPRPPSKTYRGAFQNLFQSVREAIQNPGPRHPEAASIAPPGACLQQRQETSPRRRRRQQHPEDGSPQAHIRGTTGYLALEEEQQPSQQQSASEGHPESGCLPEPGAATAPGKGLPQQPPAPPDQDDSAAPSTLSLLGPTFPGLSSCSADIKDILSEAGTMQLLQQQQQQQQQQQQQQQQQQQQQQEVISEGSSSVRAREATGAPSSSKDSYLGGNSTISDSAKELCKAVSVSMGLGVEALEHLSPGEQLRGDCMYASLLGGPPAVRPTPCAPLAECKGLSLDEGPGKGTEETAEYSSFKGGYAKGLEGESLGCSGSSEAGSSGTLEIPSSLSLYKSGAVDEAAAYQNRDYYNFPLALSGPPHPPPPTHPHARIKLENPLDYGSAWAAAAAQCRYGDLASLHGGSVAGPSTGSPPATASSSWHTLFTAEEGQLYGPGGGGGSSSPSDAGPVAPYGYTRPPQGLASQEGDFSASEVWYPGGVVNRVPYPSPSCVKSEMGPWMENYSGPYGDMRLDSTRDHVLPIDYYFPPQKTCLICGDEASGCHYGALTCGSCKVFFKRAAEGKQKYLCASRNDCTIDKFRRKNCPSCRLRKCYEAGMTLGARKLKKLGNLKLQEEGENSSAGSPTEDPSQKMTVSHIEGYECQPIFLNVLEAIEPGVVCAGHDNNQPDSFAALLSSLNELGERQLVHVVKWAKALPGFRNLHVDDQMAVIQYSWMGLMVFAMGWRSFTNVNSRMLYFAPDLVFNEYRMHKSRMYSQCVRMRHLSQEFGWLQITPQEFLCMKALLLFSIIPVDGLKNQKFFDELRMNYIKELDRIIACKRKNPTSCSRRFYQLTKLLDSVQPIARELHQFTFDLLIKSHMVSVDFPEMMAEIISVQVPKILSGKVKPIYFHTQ

[9] = target: Voltage-dependent L-type calcium channel subunit alpha-1C (Homo sapiens, UniProt Q13936); format: functional, cell-based
Also: assay procedure not described here.

Chain of Voltage-dependent L-type calcium channel subunit alpha-1C (Q13936 whole entry): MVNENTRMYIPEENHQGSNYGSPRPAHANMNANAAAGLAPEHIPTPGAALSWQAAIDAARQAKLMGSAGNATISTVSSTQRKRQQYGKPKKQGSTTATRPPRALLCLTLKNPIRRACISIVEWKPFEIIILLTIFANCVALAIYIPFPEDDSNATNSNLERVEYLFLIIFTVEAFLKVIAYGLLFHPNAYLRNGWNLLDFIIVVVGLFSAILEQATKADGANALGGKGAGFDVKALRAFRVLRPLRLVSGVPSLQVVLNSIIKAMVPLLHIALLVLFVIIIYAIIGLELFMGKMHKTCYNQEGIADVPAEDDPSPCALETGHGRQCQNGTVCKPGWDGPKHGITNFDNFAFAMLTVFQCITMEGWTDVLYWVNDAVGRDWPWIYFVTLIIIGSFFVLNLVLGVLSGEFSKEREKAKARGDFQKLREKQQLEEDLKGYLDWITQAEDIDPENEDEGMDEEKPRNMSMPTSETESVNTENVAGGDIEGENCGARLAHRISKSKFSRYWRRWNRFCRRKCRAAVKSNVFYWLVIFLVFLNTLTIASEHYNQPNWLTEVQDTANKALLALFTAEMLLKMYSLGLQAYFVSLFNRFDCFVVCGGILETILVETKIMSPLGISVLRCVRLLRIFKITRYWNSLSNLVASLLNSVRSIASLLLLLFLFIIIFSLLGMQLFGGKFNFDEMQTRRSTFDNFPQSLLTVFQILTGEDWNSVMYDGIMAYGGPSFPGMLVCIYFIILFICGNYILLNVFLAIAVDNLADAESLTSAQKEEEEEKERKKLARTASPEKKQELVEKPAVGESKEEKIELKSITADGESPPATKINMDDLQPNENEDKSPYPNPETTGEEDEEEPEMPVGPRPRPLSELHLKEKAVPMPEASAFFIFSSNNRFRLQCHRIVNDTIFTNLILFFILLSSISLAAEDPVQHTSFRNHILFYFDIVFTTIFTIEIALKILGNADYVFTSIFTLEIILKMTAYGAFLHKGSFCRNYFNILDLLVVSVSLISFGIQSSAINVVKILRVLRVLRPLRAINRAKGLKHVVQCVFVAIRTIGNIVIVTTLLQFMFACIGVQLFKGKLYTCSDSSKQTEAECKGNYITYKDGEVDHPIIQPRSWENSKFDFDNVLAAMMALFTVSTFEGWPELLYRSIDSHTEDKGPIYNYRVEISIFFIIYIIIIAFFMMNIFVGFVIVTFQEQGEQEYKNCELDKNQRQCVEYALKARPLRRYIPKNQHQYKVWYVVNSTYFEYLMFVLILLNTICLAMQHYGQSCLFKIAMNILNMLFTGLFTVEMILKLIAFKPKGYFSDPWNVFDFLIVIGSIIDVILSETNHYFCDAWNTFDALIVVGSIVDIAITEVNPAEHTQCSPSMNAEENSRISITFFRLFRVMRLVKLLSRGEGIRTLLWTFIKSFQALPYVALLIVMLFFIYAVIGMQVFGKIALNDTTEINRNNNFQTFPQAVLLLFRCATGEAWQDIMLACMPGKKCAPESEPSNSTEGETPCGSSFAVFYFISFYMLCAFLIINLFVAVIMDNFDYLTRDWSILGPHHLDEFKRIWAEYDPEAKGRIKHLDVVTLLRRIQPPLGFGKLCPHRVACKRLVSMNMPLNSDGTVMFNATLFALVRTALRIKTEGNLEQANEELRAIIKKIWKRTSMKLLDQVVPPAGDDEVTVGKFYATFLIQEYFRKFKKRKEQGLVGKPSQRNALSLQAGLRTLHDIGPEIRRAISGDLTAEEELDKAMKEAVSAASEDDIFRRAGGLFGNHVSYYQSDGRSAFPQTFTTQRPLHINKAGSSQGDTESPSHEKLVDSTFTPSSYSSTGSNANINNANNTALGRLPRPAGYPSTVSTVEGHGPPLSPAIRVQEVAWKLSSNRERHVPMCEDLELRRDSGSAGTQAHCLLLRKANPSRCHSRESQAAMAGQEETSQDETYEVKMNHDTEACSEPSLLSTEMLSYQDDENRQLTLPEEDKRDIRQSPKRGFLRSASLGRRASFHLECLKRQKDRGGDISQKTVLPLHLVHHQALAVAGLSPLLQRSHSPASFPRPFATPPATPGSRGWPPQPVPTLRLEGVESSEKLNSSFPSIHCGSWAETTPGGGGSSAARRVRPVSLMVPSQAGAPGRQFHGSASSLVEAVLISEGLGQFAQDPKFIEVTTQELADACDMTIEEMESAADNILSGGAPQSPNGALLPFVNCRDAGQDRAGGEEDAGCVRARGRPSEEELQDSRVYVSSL
Chain of Rod cGMP-specific 3',5'-cyclic phosphodiesterase subunit alpha (P16499 whole entry): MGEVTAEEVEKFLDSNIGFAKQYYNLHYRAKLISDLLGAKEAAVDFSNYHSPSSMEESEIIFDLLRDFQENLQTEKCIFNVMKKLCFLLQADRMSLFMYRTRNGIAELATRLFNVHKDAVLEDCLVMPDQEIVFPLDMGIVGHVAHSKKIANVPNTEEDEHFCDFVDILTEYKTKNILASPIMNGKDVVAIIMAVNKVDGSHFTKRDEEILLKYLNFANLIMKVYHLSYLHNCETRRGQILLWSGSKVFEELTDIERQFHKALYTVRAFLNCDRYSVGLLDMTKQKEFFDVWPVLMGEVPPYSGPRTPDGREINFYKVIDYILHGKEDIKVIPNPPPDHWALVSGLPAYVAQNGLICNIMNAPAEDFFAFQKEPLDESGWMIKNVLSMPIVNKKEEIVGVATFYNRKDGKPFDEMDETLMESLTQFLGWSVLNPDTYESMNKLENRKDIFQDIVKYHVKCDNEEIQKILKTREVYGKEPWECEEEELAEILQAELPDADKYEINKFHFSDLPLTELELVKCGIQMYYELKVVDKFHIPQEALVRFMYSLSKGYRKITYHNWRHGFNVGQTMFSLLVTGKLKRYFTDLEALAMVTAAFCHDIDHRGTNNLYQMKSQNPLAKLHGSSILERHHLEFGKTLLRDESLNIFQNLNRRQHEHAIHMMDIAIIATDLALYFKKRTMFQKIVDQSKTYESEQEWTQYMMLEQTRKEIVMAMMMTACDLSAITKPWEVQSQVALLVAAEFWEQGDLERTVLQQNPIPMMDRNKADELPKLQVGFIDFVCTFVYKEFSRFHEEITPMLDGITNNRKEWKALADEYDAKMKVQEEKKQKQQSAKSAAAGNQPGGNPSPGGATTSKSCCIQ
Chain of 5-hydroxytryptamine receptor 2A (P28223 whole entry): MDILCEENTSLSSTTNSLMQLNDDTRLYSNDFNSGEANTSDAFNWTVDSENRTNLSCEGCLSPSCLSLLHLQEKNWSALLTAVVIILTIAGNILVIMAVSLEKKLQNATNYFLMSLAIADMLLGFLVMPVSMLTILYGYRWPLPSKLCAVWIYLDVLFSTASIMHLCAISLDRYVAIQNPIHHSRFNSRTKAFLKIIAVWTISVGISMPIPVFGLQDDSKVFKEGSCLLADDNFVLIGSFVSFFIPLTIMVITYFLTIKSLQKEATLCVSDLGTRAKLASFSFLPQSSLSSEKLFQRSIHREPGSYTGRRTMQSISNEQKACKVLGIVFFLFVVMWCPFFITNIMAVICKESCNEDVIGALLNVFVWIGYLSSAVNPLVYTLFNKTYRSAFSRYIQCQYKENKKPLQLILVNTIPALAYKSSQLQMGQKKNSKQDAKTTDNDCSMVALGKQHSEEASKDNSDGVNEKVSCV

Cn1nnc2c(C(N)=O)ncn2c1=O [TEMOZOLOMIDE]
AC50 [1]: > 10 µM

Cc1c(C(=O)NN2CCCCC2)nn(-c2ccc(Cl)cc2Cl)c1-c1ccc(Cl)cc1 [RIMONABANT]
AC50 [2]: 14 µM | AC50 [3]: > 10 µM | AC50 [4]: > 30 µM | AC50 [5]: > 30 µM | AC50 [6]: > 30 µM | AC50 [7]: > 30 µM | AC50 [1]: > 10 µM

C=CCc1ccccc1OCC(O)CNC(C)C (configuration not stated) [ALPRENOLOL]
AC50 [8]: > 30 µM

CC(=O)Nc1ccc(O)cc1 [ACETAMINOPHEN]
AC50 [4]: > 30 µM | AC50 [5]: > 30 µM

O=C(O[C@H]1C[C@H]2CC[C@@H](C1)[N+]21CCCC1)C(O)(c1ccccc1)c1ccccc1 [TROSPIUM]
AC50 [8]: > 30 µM

NCC(CC(=O)O)c1ccc(Cl)cc1 (configuration not stated) [BACLOFEN]
AC50 [3]: > 10 µM

CN1C(C(=O)Nc2ccccn2)=C(O)c2sc(Cl)cc2S1(=O)=O [LORNOXICAM]
AC50 [2]: > 30 µM | AC50 [4]: > 30 µM | AC50 [5]: > 30 µM | AC50 [6]: > 30 µM | AC50 [7]: > 30 µM | AC50 [1]: > 10 µM

CCCCCCOc1nsnc1C1=CCCN(C)C1 [XANOMELINE]
AC50 [9]: 10 µM

Cc1ccc(-c2cc(C(F)(F)F)nn2-c2ccc(S(N)(=O)=O)cc2)cc1 [CELECOXIB]
AC50 [3]: > 10 µM

COc1ccccc1OCC(O)CN1CCN(CC(=O)Nc2c(C)cccc2C)CC1 (configuration not stated) [RANOLAZINE]
AC50 [9]: > 50 µM

CC[C@H]1[C@@H](O)[C@@H]2[C@H](CC[C@]3(C)[C@@H]([C@H](C)CCC(=O)O)CC[C@@H]23)[C@@]2(C)CC[C@@H](O)C[C@@H]12 [OBETICHOLIC ACID]
AC50 [8]: > 30 µM | AC50 [9]: > 30 µM

CN(C)CCC(c1ccc(Cl)cc1)c1ccccn1 (configuration not stated) [CHLORPHENIRAMINE]
AC50 [3]: > 10 µM

CCC1=C(C)CN(C(=O)NCCc2ccc(S(=O)(=O)NC(=O)N[C@H]3CC[C@H](C)CC3)cc2)C1=O [GLIMEPIRIDE]
AC50 [4]: > 30 µM | AC50 [5]: > 30 µM

CO[C@H]1C[C@@H]2CC[C@@H](C)[C@@](O)(O2)C(=O)C(=O)N2CCCC[C@H]2C(=O)O[C@H]([C@H](C)C[C@@H]2CC[C@@H](O)[C@H](OC)C2)CC(=O)[C@H](C)/C=C(\C)[C@@H](O)[C@@H](OC)C(=O)[C@H](C)C[C@H](C)/C=C/C=C/C=C/1C [SIROLIMUS]
AC50 [9]: > 50 µM

CCC(C)n1ncn(-c2ccc(N3CCN(c4ccc(OCC5COC(Cn6cncn6)(c6ccc(Cl)cc6Cl)O5)cc4)CC3)cc2)c1=O (configuration not stated) [ITRACONAZOLE]
AC50 [4]: > 30 µM | AC50 [5]: > 30 µM

CS(=O)(=O)c1ccc(C2=C(c3ccccc3)C(=O)OC2)cc1 [ROFECOXIB]
AC50 [3]: > 10 µM

O=C1Nc2ccc(Cl)cc2[C@@](C#CC2CC2)(C(F)(F)F)O1 [EFAVIRENZ]
AC50 [1]: 3.79 µM

Source: ChEMBL document CHEMBL5291721, “A preclinical secondary pharmacology resource illuminates target-adverse drug reaction associations of marketed drugs” (Nat Commun, 2023)
